Data set [1] can be described thus: Solubility of the compound in aqueous medium at pH 7. The format is physicochemical.
The nature of data set [2]: Drug level in Wistar rat brain at 100 mg/kg, po measured after 1 hr. The format is ADME, organism-based. To be noted: read-out: Drug uptake.
Data set [3] in a line: Plasma concentration in Wistar rat at 100 mg/kg, po measured after 1 hr. The format is ADME, organism-based.
A short description of data set [4]: Unbound plasma concentration in Wistar rat at 100 mg/kg, po measured after 1 hr. The format is ADME, organism-based. The settings on record: in vivo.
A short description of data set [5]: Intrinsic clearance in rat liver microsomes assessed per mg protein. The format is ADME, microsome. The settings on record: read-out: CLH. In general terms: Liver microsomes are a subcellular fraction often used to study metabolism.

Converted amounts (≈) assume the structure as drawn.

As to `O=C(NCc1ccccc1OCC(F)(F)F)c1nn(-c2ccccc2)c(-c2ccccc2)c1CCNC1CC1`, the solubility (in general, the dissolved amount per volume that the medium holds) in data set [1] (buffer) is “Soluble”.

For the compound `CCN(CC)CCc1c(C(=O)NCc2ccccc2OCC(F)(F)F)nn(-c2ccccc2)c1-c1ccccc1`, the solubility result in data set [1] (buffer) is “Soluble”.

`CCNCCc1c(C(=O)NCc2ccccc2OCC(F)(F)F)nn(-c2ccccc2)c1-c1ccccc1`: the concentration at 1 h in data set [2] was 80 nM; in data set [3] it was 810 nM. Also, the solubility in data set [1] (aqueous medium, read-out: solubility) turned out to be 429 µg/mL (≈ 821 µM). Besides, the “Cp(f)” value in data set [4] was found to be 4.9 nM. Besides, the microsomal CLint in data set [5] came to 377 µL/min/mg.

Source of the values: ChEMBL document CHEMBL4177627, “Discovery and evaluation of Cav3.1-selective T-type calcium channel blockers” (Bioorg Med Chem Lett, 2017).
